These results are taken from US20150309042A1, “FLUOROGENIC DENDRIMER REPORTERS AND RELATED METHODS OF USE” (The Regents of the University of Michigan, priority 2013, published 2015).

A short description of data set [1]: 'click-on' reaction with a representative alkyne-derivatized molecule, fluorescence emission measurement. The data set is classed as physicochemical. Particulars: azidocoumarin free vs. attached to the dendrimer. Here is the method: The fluorogenic properties of the small molecule and dendrimer coumarin reporters were first evaluated by performing the ‘click’ reaction with a representative alkyne-derivatized molecule, 3-(4-(prop-2-yn-1-yloxy)phenyl)propionic acid at room temperature for 12 hours (Scheme 2). […] However, after attaching to the dendrimer, the absorbance of azidocoumarin has red-shifted 20 nm (λmax Ex 340 vs. 360 nm). Following ligation with the alkyne-derivatized molecule, the G5-Coumarin 3 increased its fluorescence 21-fold (FIG. 1). […] This difference in fluorescent enhancement was primarily attributable to the decrease in the background fluorescence intensity of azidocoumarin on the dendrimer reporter. The structure-property relationships are still under investigation.
Experimental Procedure of “Click-on and Probe” Reaction G5-coumarin 3 was dissolved in Cu(II) sulfate (10 mol % per COUlnarin, 1 mg/mL H20 solution) solution. 3-(4-(prop-2-yn-1-yloxy)phenyl)propanoic acid (5 per coumarin, 5 mg/mL DMSO solution) were added. The reaction mixture was incubated at room temperature for 12 h before diluted in H2O for fluorescent emission measurement. […] The excitation and emission spectra were recorded after dilution using H2O.

The subject of a further data set is KB cells. Nature of the data set: detection of EdU incorporated into newly synthesized DNA of KB cells by 'click' ligation and flow cytometry. In kind it is cell-based. The text has this:
The efficacy of the fluorogenic reporters in monitoring metabolite flux in a typical cell culture system was next evaluated. 5-ethynyl-2′-deoxyuridine (EdU), a nucleoside analogue, incorporation into newly synthesized DNA (Scheme 2), a common molecular biology technique to profile cellular proliferation, was monitored (see, e.g., Hahn, C. G.; Han, L. Y.; Rawson, N. E.; Mirza, N.; Borgmann-Winter, K.; Lenox, R. H.; Arnold, S. E. J Comp Neurol 2005, 483, 154; Salic, A.; Mitchison, T. J. P Natl Acad Sci USA 2008, 105, 2415; Limsirichaikul, S.; Niimi, A.; Fawcett, H.; Lehmann, A.; Yamashita, S.; Ogi, T. Nucleic Acids Res 2009, 37; Yamakoshi, H.; Dodo, K.; Okada, M.; Ando, J.; Palonpon, A.; Fujita, K.; Kawata, S.; Sodeoka, M. J Am Chem Soc 2011, 133, 6102). Traditionally, 5-bromo-2′-deoxyuridine (BrdU), an antibody-specific nucleoside analogue, has been used to monitor DNA synthesis but is limited by the complicated processing and signal variability (see, e.g., Declercq, E.; Descamps, J.; Balzarini, J.; Giziewicz, J.; Barr, P. J.; Robins, M. J. J Med Chem 1983, 26, 661). EdU is a DNA base modified with a terminal alkyne group replacing the methyl group in the 5 position and is readily incorporated into newly synthesized DNA during cell proliferation. […] To compare the detection efficacy of the different fluorogenic reporters, the DNA-incorporated EdU molecules were ligated with either the small molecule 3-azido-7-hydroxy coumarin or the dendrimer-coumarin reporters (G5-Coumarin 3) using ‘click’ reactions and then analyzed by flow cytometry. […] Similar to other ‘click’ reaction detection methods with traditional azide fluorescent reporters, detection of EdU incorporation into DNA with the fluorogenic dendrimer reporters retain the accuracy of the traditional assays but reduces background fluorescence greatly improving assay throughput.
EdU Labeling and Staining of Cultured Cells. […] Fluorescence signal intensities from the samples were measured using an Accuri C6 Flow Cytometer (Ann Arbor, Mich.) and data were analyzed using FlowJo 8.7 software (TreeStar).

Take `[N-]=[N+]=Nc1cc2ccc(O)cc2oc1=O` [3-azido-7-hydroxy coumarin]: the “λmax Ex” value in data set [1] is 340 nm. Besides, in the data set on KB cells (KB cells with EdU, after standard wash steps), the “fluorescence intensity after standard wash steps” value was “decreased”. Moreover, the “cell positive rate before wash steps” value in the data set on KB cells (KB cells with EdU, no washes) is “much higher degree of cell positive rate”. Moreover, in the data set on KB cells (KB cells, 10 μM EdU for 5 hours, reporters at 10 nM and 100 nM), the “fluorescent intensity after ligation with DNA-incorporated EdU” value is reported as “increases in fluorescent intensity”.
